Laboratory results taken from US20170305936A1, “SOLID STATE FORMS OF CRISABOROLE” (Pliva Hrvatska d.o.o., priority 2016, published 2017).
One block for each compound: values may come before it.

How the values were obtained:
Assay type in all cases: physicochemical
[1] = Stability at high humidity levels
Description: Moreover, Form I is stable at high humidity levels (e.g. room temperature at 100% RH for 5-7 days), including after milling procedure (e.g. feeding pressure: 6.5 bar; grinding pressure: 6 bar; rotation speed: 300 rpm).

[2] = Thermodynamic (polymorphic) stability on storage, re-analysis by PXRD; conditions: for thermodynamic stability (conversion to any other solid state form, by XRPD): up to 50° C./80% RH
Description: Thermodynamic stability in relation to crystalline Crisaborole form I refers to less than 20%, 10%, 5%, 2%, 1%, or 0.5% conversion of crystalline Crisaborole form Ito any other solid state form of Crisaborole after exposure of form Ito conditions of up to 50° C./80% RH, e.g. 2-8° C., 25° C./60% RH, 40° C./75% RH for at least 1 month, as measured by XRPD. In some embodiments, the conversion is 1%-20%, 1%-10% or 1%-5%. […] Thermodynamic stability in relation to crystalline Crisaborole form II refers to less than 20%, 10%, 5%, 2%, 1%, or 0.5% conversion of crystalline Crisaborole form II to any other solid state form of Crisaborole after exposure of form II to conditions of up to 50° C./80% RH, e.g. 25° C./60% RH, 40° C./75% RH for at least 2 months, as measured by XRPD. In some embodiments, the conversion is 1%-20%, 1%-10% or 1%-5%. Sample after being powdered in a mortar and pestle is applied directly on a silicon plate holder. The X-ray powder diffraction pattern was measured with Philips X'Pert PRO X-ray powder diffractometer, equipped with Cu irradiation source=1.54184 Å (Angstrom), X'Celerator (2.022° 2θ) detector. Scanning parameters: angle range: 3-40 deg., step size 0.0167, time per step 37 s, continuous scan. Samples of Crisaborole form I were stored for 2 weeks at 25° C. 2-8° C., and for 1 month at different stress conditions: 25° C./60% RH, 40° C./75% RH, 50° C. and 50° C./80% RH.

[3] = Hygroscopicity (water absorption, European Pharmacopoeia 7.0, chapter 01/2008:51100); conditions: non-hygroscopic = less than 0.2% (w/w) water absorption after 24 h exposure to 25° C./80% RH
Description: As used herein the term non-hygroscopic in relation to crystalline Crisaborole refers to less than 0.2% (w/w) of water absorption after 24 h exposure to 25° C./80% RH, determined according to European Pharmacopoeia 7.0, chapter 01/2008:51100. Water can be for example atmospheric water.

Solubility in solvents = test: Solubility in solvents
[4] = Mechanical stability (stress, re-analysis by PXRD)
Description: Sample after being powdered in a mortar and pestle is applied directly on a silicon plate holder. The X-ray powder diffraction pattern was measured with Philips X'Pert PRO X-ray powder diffractometer, equipped with Cu irradiation source=1.54184 Å (Angstrom), X'Celerator (2.022° 2θ) detector. Scanning parameters: angle range: 3-40 deg., step size 0.0167, time per step 37 s, continuous scan.

[5] = Chemical stability on storage (impurity profile, HPLC)
Description: HPLC analysis was performed on instrument Agilent 1290, with experimental conditions being set as follows: Samples of Crisaborole form I were stored for 2 weeks at 25° C. 2-8° C., and for 1 month at different stress conditions: 25° C./60% RH, 40° C./75% RH, 50° C. and 50° C./80% RH.

stability at high humidity levels after milling procedure ([1]; after milling (feeding pressure 6.5 bar; grinding pressure 6 bar; rotation speed 300 rpm)): stable
stability at high humidity levels ([1]; room temperature at 100% RH for 5-7 days): stable
PXRD after storage ([2]; 1 month at 25° C./60% RH): unchanged
PXRD after storage ([2]; 1 month at 40° C./75% RH): unchanged
PXRD after storage ([2]; 1 month at 50° C.): unchanged
PXRD after storage ([2]; 1 month at 50° C./80% RH): unchanged
PXRD after storage ([2]; 2 weeks at 2-8° C.): unchanged
PXRD after storage ([2]; 2 weeks at 25° C.): unchanged
thermodynamic stability (conversion to any other solid state form, by XRPD) ([2]; e.g. 2-8° C., 25° C./60% RH, 40° C./75% RH for at least 1 month): good thermodynamic stability
thermodynamic stability (conversion to any other solid state form, by XRPD) ([2]; e.g. 2-8° C., 25° C./60% RH, 40° C./75% RH for at least 1 month, listed as Crystalline form I of Crisaborole): thermodynamically stable
hygroscopicity [3]: non-hygroscopic
solubility in N,N-dimethylformamide (Solubility in solvents; N,N-dimethylformamide): very soluble
solubility in ethanol (Solubility in solvents; ethanol): freely soluble
solubility in isopropanol (Solubility in solvents; isopropanol): freely soluble
solubility in propylene glycol (Solubility in solvents; propylene glycol): freely soluble
mechanical stability, PXRD after stress ([4]; pressure of 9 tons on 132.67 mm^2 for 2 min): unchanged
mechanical stability, PXRD after stress ([4]; pressure of 9 tons on 132.67 mm^2 for 2 min, listed as Form I): resistant to mechanical stress
mechanical stability, PXRD after stress ([4]; strong grinding using mortar and pestle for 2 min): unchanged
mechanical stability, PXRD after stress ([4]; strong grinding using mortar and pestle for 2 min, listed as Form I): resistant to mechanical stress
mechanical stability, PXRD after stress ([4]; strong grinding with a drop of solvent (e.g. H2O, EtOH) using mortar and pestle for 2 min): unchanged
mechanical stability, PXRD after stress ([4]; strong grinding with a drop of solvent (e.g. H2O, EtOH) using mortar and pestle for 2 min, listed as Form I): resistant to mechanical stress
chemical stability [5]: chemically stable
impurity profile after storage ([5]; 1 month at 25° C./60% RH): no change in impurity profile
impurity profile after storage ([5]; 1 month at 40° C./75% RH): no change in impurity profile
impurity profile after storage ([5]; 1 month at 50° C.): no change in impurity profile
impurity profile after storage ([5]; 1 month at 50° C./80% RH): no change in impurity profile
impurity profile after storage ([5]; 2 weeks at 2-8° C.): no change in impurity profile
impurity profile after storage ([5]; 2 weeks at 25° C.): no change in impurity profile
Compound: N#Cc1ccc(Oc2ccc3c(c2)COB3O)cc1 [Crisaborole form I, 5-(4-Cyanophenoxy)-1,3-dihydro-1-hydroxy-2,1-benzoxaborole]

stability to polymorphic conversions under high humidity ([1]; high humidity): stable
thermodynamic stability (conversion to any other solid state form, by XRPD) ([2]; e.g. 25° C./60% RH, 40° C./75% RH for at least 2 months): good thermodynamic stability
thermodynamic stability (conversion to any other solid state form, by XRPD) ([2]; e.g. 25° C./60% RH, 40° C./75% RH for at least 2 months, listed as Crystalline form II of Crisaborole): thermodynamically stable
Compound: N#Cc1ccc(Oc2ccc3c(c2)COB3O)cc1 [Crisaborole form II, 5-(4-Cyanophenoxy)-1,3-dihydro-1-hydroxy-2,1-benzoxaborole]
